This experiment deals with T1, norepinephrine transporter (NET) (Homo sapiens, UniProt P23975).
T1 construct: gene SLC6A2
Kind of experiment: competitive inhibition of […]AF78 uptake in SK-N-SH cells ([…] against […]MIBG). In kind it is cell-based.

T1 sequence (P23975 whole entry): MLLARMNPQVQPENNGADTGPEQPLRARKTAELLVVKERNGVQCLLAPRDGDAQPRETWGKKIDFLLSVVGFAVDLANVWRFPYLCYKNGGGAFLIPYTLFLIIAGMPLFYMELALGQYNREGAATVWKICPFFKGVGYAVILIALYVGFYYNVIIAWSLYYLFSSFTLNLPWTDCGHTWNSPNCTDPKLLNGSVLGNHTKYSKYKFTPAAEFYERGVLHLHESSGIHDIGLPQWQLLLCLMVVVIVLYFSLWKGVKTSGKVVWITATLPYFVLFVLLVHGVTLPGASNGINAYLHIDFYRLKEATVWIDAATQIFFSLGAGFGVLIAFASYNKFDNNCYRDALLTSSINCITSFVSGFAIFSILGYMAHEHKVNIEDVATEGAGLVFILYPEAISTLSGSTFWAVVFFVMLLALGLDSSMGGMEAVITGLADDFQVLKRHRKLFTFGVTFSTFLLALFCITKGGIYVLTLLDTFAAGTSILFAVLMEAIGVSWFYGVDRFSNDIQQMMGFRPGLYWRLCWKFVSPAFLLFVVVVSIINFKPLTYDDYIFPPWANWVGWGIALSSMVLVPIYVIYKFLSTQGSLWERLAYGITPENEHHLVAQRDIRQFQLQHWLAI

On to `N=C(N)NCCc1ccc(F)c(O)c1` [4F-MHPG, 4-[^18F]fluoro-3-hydroxyphenethylguanidine], for which the 50% inhibitory concentration (IC50) amounted to 850 ± 630 nM.

What is called IC50 is the concentration that gives 50% inhibition. The low end stands for higher potency, the high end for lower potency.

Values taken from PMC7250802, “Initial Evaluation of AF78: a Rationally Designed Fluorine-18-Labelled PET Radiotracer Targeting Norepinephrine Transporter” (Molecular Imaging and Biology, 2019).
